The subject of one data set is mice. The data set is described as follows: Rota-Rod motor performance, CFA injected mice. It counts as in vivo. The conditions noted are these: i.t., after the 48 hour measurement post CFA. As for the experimental part:
To first evaluate the effects of CFA injection on motor coordination, a group of 10 animals were tested on the Rotamex (Columbus Instruments Rotamex 4/8 instrument) for performance. Animals were trained three days prior to undergoing 3-5 minute trials on an accelerating rotating rod (0-20 RPMs). Motor performance was evaluated at 2, 4, 6, 24 and 48 hours post injection. Compound 4c was then injected i.t. and the motor performance was evaluated at 5 and 20 minutes. The time to the first fall were recorded and compared with controls (Kovacs K J, et al., Pain, 2008, 136, 75-84). The results for compound 4c are illustrated in FIG. 10.
A general note: In the rotarod test animals must keep their balance on a rotating rod.

A further data set concerns live mice. The data set is described as follows: Respiratory depression (Mouse Ox O2 saturation). The class given is in vivo. The conditions noted are these: for % of mice with O2 Saturation less than 90%: i.t., LPS. As for the experimental part:
Respiratory depression was measured in live mice using the Mouse Ox (small animal Oximeter from STARR Life Sciences Corp, Oakmont, Pa.). CollarClip™—(Un-Anesthetized Neck Sensor) for mice was used as the site for measuring the data. Day one of each experiment involved training the animals using a disposable CollarClip™. The collar was left on for approximately one hour. […] Mice were monitored for a 60-minute period, with measurements 10-20-30 and 60 minutes.
Respiratory depression was measured in live mice using the Mouse Ox (small animal Oximeter from STARR Life Sciences Corp, Oakmont, Pa.). CollarClip™ (Un-Anesthetized Neck Sensor) for mice was used as the site for measuring the data.
Day one of each experiment involved training the animals using a disposable CollarClip™. The collar was left on for approximately one hour.
Mice were monitored for a 60-minute period, with measurements 10-20-30 and 60 minutes.

Consider `Cc1cccc(C#Cc2cccc(OCCNC(=O)COCC(=O)NCCCCCNC(=O)COCC(=O)N[C@H]3CC[C@@]4(O)C5Cc6ccc(O)c7c6[C@@]4(CCN5C)[C@H]3O7)c2)n1` [Compound 4c, N-((4aS,7S,7aR,12bS)-4a,9-dihydroxy-3-methyl-2,3,4,4a,5,6,7,7a-octahydro-1H-4,12-methanobenzofuro[3,2-e]isoquinolin-7-yl)-2-((1-(3-((6-methylpyridin-2-yl)ethynyl)phenoxy)-4,8,16-trioxo-6-oxa-3,9,15-triazaheptadecan-17-yl)oxy)acetamide], for which, in the data set on mice, the “time on the Rotamex (time to first fall)” value is given as “stayed on the Rotomex for a longer period of time”. For the same molecule, in the data set on live mice (compared with morphine), the safety margin result is given as “greater safety margin than morphine”. For the same molecule, the therapeutic index entry with live mice (estimated) was “greater than a million”. Also, the “% of mice with O2 Saturation less than 90%” value in the data set on live mice (dose 50,000 times the ED90) is recorded as 0%; in the data set on live mice (dose 100,000 times the ED90), 100%. The respiratory depression result with live mice (mouse, in vivo) is given as “no tolerance or respiratory depression”.
